For assay [1], the target named is T1, MAOB (monoamine oxidase B) (Homo sapiens, UniProt P27338).
T1 construct: recombinant human MAOB
T1 sequence (P27338 2-520): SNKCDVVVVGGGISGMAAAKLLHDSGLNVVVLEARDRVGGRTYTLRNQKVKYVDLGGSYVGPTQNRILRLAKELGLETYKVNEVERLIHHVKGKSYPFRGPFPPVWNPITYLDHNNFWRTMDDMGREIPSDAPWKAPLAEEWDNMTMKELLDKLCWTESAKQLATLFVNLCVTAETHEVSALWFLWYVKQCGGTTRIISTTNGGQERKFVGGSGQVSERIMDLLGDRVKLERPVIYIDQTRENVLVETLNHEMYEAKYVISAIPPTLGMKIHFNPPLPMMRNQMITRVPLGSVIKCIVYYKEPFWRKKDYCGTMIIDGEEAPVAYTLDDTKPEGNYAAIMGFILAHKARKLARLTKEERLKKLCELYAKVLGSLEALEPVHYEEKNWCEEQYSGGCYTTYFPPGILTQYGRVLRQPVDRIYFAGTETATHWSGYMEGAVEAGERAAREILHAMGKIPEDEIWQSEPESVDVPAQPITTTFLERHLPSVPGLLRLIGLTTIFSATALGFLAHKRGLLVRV
In words: ITC ([…] stoichiometry); also MAOB activity inhibition in vitro, IC50 […]. The class given is binding.

The target of assay [2] is T1, MAOB (monoamine oxidase B). The assay can be described thus: ITC. The assay is classed as binding.

We go through three compounds from PMC4764943, “Inhibitory effect of traditional oriental medicine-derived monoamine oxidase B inhibitor on radioresistance of non-small cell lung cancer” (Scientific Reports, 2016).

The Kd is the equilibrium constant for the complex coming apart. Consider `O=C(O)[C@H](O)Cc1ccc(O)c(O)c1` [danshensu, 3-(3,4-dihydroxyphenyl)-2-hydroxy-propanoic acid], for which the Kd in assay [1] is 16 ± 0.8 µM.
For the compound `CNCC(O)c1ccc(O)cc1` (stereo not drawn) [synephrine], the equilibrium dissociation constant (Kd) in assay [2] (read-out: Kd) was determined as 183 ± 10.3 µM.
Compound `COc1cc(C=O)ccc1O` [vanillin] displayed a Kd in assay [2] of 165 ± 9.1 µM.
